# Measurements published in paper PMC6331910, “The Curcumin Analogue 1,5-Bis(2-hydroxyphenyl)-1,4-pentadiene-3-one Induces Apoptosis and Downregulates E6 and E7 Oncogene Expression in HPV16 and HPV18-Infected Cervical Cancer Cells” (Molecules, 2015).
# What was measured:
# CaSki = test: Acridine orange/ethidium bromide double staining, quantification of viable, apoptotic and necrotic cells; format: cell-based, human
# Description: (§1) HeLa, 9 μM] at various time points. Each experiment included a set of untreated control cells (Media with DMSO alone). Double staining with acridine orange and ethidium bromide and consequently fluorescent microscopic analysis is an established method by which to distinguish between viable, necrotic and apoptotic cells. […] Following treatment, the cells were pelleted, washed twice in 1× PBS and resuspended in 50 μL 1× PBS. 1 μL of dye mixture (1 part 100 μg/mL acridine orange in PBS and 1 part 100 μg/mL ethidium bromide in PBS) was added to 10 μL of cell suspension and the entire volume was placed on a clean microscope slide. Cells were examined by fluorescence microscopy using the fluorescein filter (BX41, Olympus, Melville, NY, USA) and were distinguished via the morphological aspect of chromatin condensation in stained nuclei as previously established. A minimum of 200 cells were counted per sample and the percentage of cells from each population (viable, live apoptotic, dead apoptotic, necrotic) was calculated.
# HeLa = test: as above; format: cell-based, human
# Description: as §1
# HPV16E7 = test: Quantitative real-time PCR of viral oncogene mRNA in CaSki cells; format: cell-based, HPV16; conditions: 24 h
# Description: (§2) RNA extraction was performed using the Qiagen RNeasy® Mini Kit (Qiagen, Valencia, CA, USA). According to the manufacturer’s instructions, treated HeLa and CaSki cells were lysed using Buffer RLT (supplemented with β-mercaptoethanol) and centrifuged for 3 min at maximum speed. 70% ethanol was added to the lysate and placed in an RNeasy Mini spin column and spun at ≥8000× g for 15 s. Flow-through was discarded and the pellet was subjected to a series of wash steps using buffers RW1 and RPE and subsequent RNA elution. On-column RNase-Free DNase (Qiagen) treatment was incorporated into the extraction protocol to eliminate […]. Concentration and purity of extracted RNA was measured spectrophotometrically using NanoDrop 1000 (Thermo Fisher Scientific, Wilmington, DE, USA). Two μg of total RNA per 20 μL reaction was used for complementary DNA (cDNA) synthesis using a High Capacity RNA-to-cDNA kit (Applied Biosystems, Life Technologies, Foster City, CA, USA). Appropriate volumes of RNA sample were added to 10 μL 2XRT Buffer and 1 μL 20X RT Enzyme Mix and the total volume was adjusted to 20 μL using nuclease-free water. Reverse transcription was performed on the samples using the following conditions; 37 °C for 60 min and 95 °C for 5 min. The sequences used to design the primers and TaqMan® probes were obtained from previous publications, synthesized by Applied Biosystems and optimized to amplify the HPV16 and HPV18 E6 and E7 regions (sequences listed in Table 2) using the StepOnePlus™ Real-Time PCR system (Applied Biosystems). The optimized concentrations of the primers and probes used were […] respectively. Human VIC®-MGB ACTB (β-actin) was used as an endogenous control for internal normalisation and relative gene expression quantification. Each reaction was run in duplicates and used to calculate relative gene expression using the 2^−∆∆CT method. Expression is reported as fold change in the level of mRNA of treated cells relative to untreated cells, normalised to β-actin expression.
# HPV16E6 = test: as above; format: cell-based, HPV16; conditions: 24 h
# Description: as §2
# [1] = tested on: C4-2 prostate cancer cells; design: method as in PMID 21796654; conditions: cited from earlier work
# MRC9 = test: MTT cell viability (cytotoxicity) assay on non-cancerous lung fibroblasts, 72 h; format: cell-based; conditions: Homo sapiens, MRC9; MTT, 72 h, non-cancerous lung fibroblasts; read-out: EC50 (Mean ± S.E.M.) MRC9
# Description: HeLa, CaSki and MRC9 cells were plated in triplicate wells in 96-well flat-bottomed tissue culture plates (Nunc, Roskilde, Denmark) with 10^5 cells per mL in 100 μL culture media with working concentrations of diarylpentanoid treatment ranging from 1.6 to 100 μM. Control-treated wells contained cells incubated in media with equal volumes of DMSO (0.2%). Cells were treated for 72 h for dose-dependent cytotoxicity assays and at 24, 48 and 72 h for anti-proliferative (time-dependent) assays. In order to assess cell viability and anti-proliferative activity after diarylpentanoid treatment, the colorimetric 3-(4,5-dimethylthiazol-2-yl)-2,5-diphenyltetrazolium bromide (MTT) assay was performed as previously described with modifications. The media was aspirated and cells were incubated in 100 µL complete medium with 0.5 mg/mL MTT solution for 4 h in the dark to allow metabolism of MTT by cellular mitochondrial dehydrogenases. The excess MTT was aspirated and the formazan crystals formed were dissolved by the addition of 100 µL of DMSO. The absorbance of dark blue formazan was read at 570/650 nm wavelengths using a microplate reader (Bio-Rad Benchmark Plus Microplate Spectrophotometer, Hercules, CA, USA). Triplicate absorbance values were averaged and the effect of the compounds on growth inhibition was assessed as percentage cell viability as follows: (1) Percentage cell viability =Absorbance of Test − Absorbance of Blank (media only)/Absorbance of Control − Absorbance of Blank (media only) × 100 where, absorbance = optical density of sample, O.D.; control = untreated sample; test = treated sample.
# The results were analysed using GraphPad Prism version 6.00 for Windows (GraphPad Software, La Jolla, CA, USA). Using percentage cell viability Equation (1), log dose–response curves were constructed, from which the half maximal effective concentration, EC50 for each replicate was determined. Overall EC50 was determined by taking the average EC50 from three independent experiments. […] (3) Selectivity Index (SX) =EC50 (MRC9)/EC50 (Cancer cell line) × 100
# [2] = tested on: LNCaP prostate cancer cells; design: method as in PMID 21796654; conditions: cited from earlier work
compound,measurement,setting,value
"O=C(C=Cc1ccccc1O)C=Cc1ccccc1O [MS17, 1,5-bis(2-hydroxyphenyl)-1,4-pentadiene-3-one]",early apoptotic cells,"CaSki; 2 µM, 24 h",10%
same,early apoptotic cells,"CaSki; 2 µM, 48 h",20%
same,early apoptotic cells,"CaSki; 4 µM, 24 h",85%
same,early apoptotic cells,"CaSki; 4 μM, 48 h",75%
same,early apoptotic cells,"CaSki; 6 µM, 24 h",55%
same,necrotic cells,"CaSki; 6 µM, 24 h",30%
same,early apoptotic cells,"CaSki; 6 µM, 48 h",30%
same,necrotic cells,"CaSki; 6 µM, 48 h",50%
same,necrotic cells,"CaSki; 2 and 4 µM, 24 and 48 h",~ 10%
same,viable cells,"CaSki; 24 h, end of dose-dependent decrease (2–6 µM)",less than 5%
same,viable cells,"CaSki; 48 h, with increasing treatment dose (2–6 µM)",less than 5%
same,early apoptotic cells,"HeLa; 3 µM, 24 h",40%
same,early apoptotic cells,"HeLa; 3 µM, 48 h",50%
same,necrotic cells,"HeLa; 3 µM, throughout the treatment period (24 and 48 h)",approximately 10%
same,early apoptotic cells,"HeLa; 6 µM, 24 h",60%
same,early apoptotic cells,"HeLa; 6 µM, 48 h",30%
same,necrotic cells,"HeLa; 6 µM, throughout the treatment period (24 and 48 h)",approximately 25%
same,early apoptotic cells,"HeLa; 9 µM, 24 h",50%
same,necrotic cells,"HeLa; 9 µM, 24 h",40%
same,early apoptotic cells,"HeLa; 9 µM, 48 h",10%
same,necrotic cells,"HeLa; 9 µM, 48 h",50%
same,viable cells,"HeLa; 24 h, end of dose-dependent decrease (3–9 µM)",less than 10%
same,viable cells,"HeLa; 48 h, with increasing treatment dose (3–9 µM)",less than 5%
same,late apoptotic cells,"HeLa; all treatment doses, 24 h",≤ 10%
same,inhibition of E7 oncogene expression,HPV16E7; 2 μM and 4 μM,did not show significant inhibition
same,decrease in HPV16E7 expression,"HPV16E7; 6 μM, vs untreated",3 fold
same,inhibition of E6 oncogene expression,HPV16E6; 2 μM and 4 μM,did not show significant inhibition
same,decrease in HPV16E6 expression,"HPV16E6; 6 μM, vs untreated",3 fold
same,concentration causing significant cell death,[1],more than 2.5 μM
same,EC50,MRC9,4.6 ± 1.2 µM
same,concentration causing significant cell death,[2],> 10 µM
